Measured values reported in patent publication US20130210852A1, “METHODS FOR TREATING INFECTION” (priority 2010, published 2013).
Read-outs that look alike come from different tables or passages of the source.

Legend:
MMP-9 in EAEC isolates = experiment: Matrix metalloproteinase-9 detection by gelatin zymography, EAEC; format: cell-based, Escherichia coli
Method: Matrix Metalloproteinase-9 Detection Expression of matrix metalloproteinase-9 (MMP-9) was analyzed using gelatin zymography in all viable EAEC and S. sonnei isolates growing on MacConkey agar. Isolates were suspended in 1 mL of 0.1 M phosphate buffered saline (pH 7.2) and centrifuged at 1000 g for 10 minutes at 4° C. The supernatant was subjected to gelatin zymography to detect MMP-9 activity using a modified Heussen and Dowdle protocol (9). In summary, the supernatant was diluted 1:2 in a sample buffer (125 mM Tris-HCl, pH 6.8, 20% glycerol, 4% sodium dodecyl sulfate, 0.02% bromphenol blue), and 20 μL was loaded on to a 10% SDS-PAGE gel containing 1 mg/mL gelatin. Prestained standard proteins were used as molecular weight markers. After electrophoresis, gels were rinsed with incubation buffer (2.5% triton X-100, 50 mM Tris-HCl, pH 7.4, 0.02% Brij 35, 10 mM CaCl2, 2 μM ZnCl2) for 1 hour at room temperature to remove SDS. Gels were then incubated overnight at 37° C. and subsequently stained with Coomassie brilliant blue R-250 (Thermo Fisher Scientific, Inc, Rockford, Ill.). […] Matrix metalloproteinase-9 was identified among all gelatinolytic proteins by size.

[1] = tested on: HCT-8 cells infected with rifaximin-exposed EAEC strains; experiment: HCT-8 cell culture assay for interleukin-8 (IL-8) release; format: cell-based, human
Method: The human intestinal adenocarcinoma cell line, HCT-8, was used to study inflammatory modulators as previously published (Huang, 2004 #15). Monolayers of HCT-8 cells (ATCC CCL-244; American Type Culture Collection, Rockville, Md.) were grown in 24-well culture plates (Corning Costar, Corning, N.Y.) in an RPMI 1640 medium (Sigma-Aldrich Co, St Louis, Mo.) supplemented with 100 U/mL of penicillin, 100 μg/mL of streptomycin, and 0.25 μg/mL of amphotericin B. They were maintained in a medium supplemented with 10% fetal bovine serum (HyClone, Logan, Utah) and grown until approximately 4×10^5 cells/well confluence.
HCT-8 cells were infected with EAEC strains recovered from MacConkey agar in triplicate at a 100:1 ratio in an antibiotic- and serum-free RPMI 1640 medium. Cells were incubated for 3 hours in a humidified chamber at 37° C. in an atmosphere containing 5% CO2, after which supernatants were collected. The supernatant concentration of IL-8 in each well was determined by using a commercially available enzyme-linked immunosorbent assay kit for human IL-8 (R&D Systems, Minneapolis, Minn.). All samples were tested twice, and the average value was reported.

[2] = tested on: EAEC strain O42 adherence to HEp-2 cells; experiment: HEp-2 cell attachment assay (microscopy after Wright-Giemsa staining); format: cell-based, human; conditions: HEp-2 cells incubated 24 h with antibiotic, washed, then EAEC 3 h
[3] = tested on: ETEC isolates (ST, LT, CS2/CS3, CS6); format: cell-based, Escherichia coli; as to Expression of virulence factor CS2/CS3 in ETEC isolates: key: + = present; − = not present; NV, not viable; as to Expression of virulence factor CS6 in ETEC isolates: key: + = present; − = not present; NV, not viable; as to Expression of virulence factor LT in ETEC isolates: key: + = present; − = not present; NV, not viable; as to Expression of virulence factor ST in ETEC isolates: key: + = present; − = not present; NV, not viable
[4] = rifaximin 8 mg/L, exposure 4 hrs
[5] = rifaximin 8 mg/L, exposure 8 hrs
[6] = rifaximin 8 mg/L, exposure 18 hrs
[7] = rifaximin 8 mg/L, exposure 24 hrs
[8] = rifaximin 32 mg/L, exposure 4 hrs
[9] = rifaximin 32 mg/L, exposure 8 hrs
[10] = rifaximin 32 mg/L, exposure 18 hrs
[11] = rifaximin 64 mg/L, exposure 4 hrs
[12] = rifaximin 64 mg/L, exposure 8 hrs

In the case of `CO[C@H]1/C=C/O[C@@]2(C)Oc3c(C)c(O)c4c(O)c(c5c(nc6cc(C)ccn65)c4c3C2=O)NC(=O)/C(C)=C\C=C\[C@H](C)[C@H](O)[C@@H](C)[C@@H](O)[C@@H](C)[C@H](OC(C)=O)[C@@H]1C` [Rifaximin, (2S,16Z,18E,20S,21S,22R,23R,24R,25S,26S,27S,28E)-5,6,21,23,25 Pentahydroxy-27-methoxy-2,4,11,16,20,22,24,26-octamethyl-2,7-(epoxypentadeca-(1,11,13)trienimino)benzofuro (4,5-e) pyrido(1,2,-a) benzimidazole-1,15(2H)-dione,25-acetate], the “MMP-9 expression by EAEC isolates” value (MMP-9 in EAEC isolates; rifaximin 8 mg/L for 4 and 8 hours) is reported as “expressed MMP-9”, the “MMP-9 expression by EAEC isolates” value (MMP-9 in EAEC isolates; rifaximin 8 mg/L for 24 hours) is reported as “undetectable” and the “MMP-9 expression by EAEC isolates” value (MMP-9 in EAEC isolates; rifaximin 8 mg/L, 18-hour time point) is reported as “one EAEC isolate produced MMP-9, but the other isolate did not”. The “MMP-9 expression by EAEC isolates” value (MMP-9 in EAEC isolates; rifaximin 32 or 64 mg/L for 4, 8, or 18 hours) was “undetectable”, the “IL-8 production from HCT-8 cells infected with rifaximin-exposed EAEC” value (“IL-8 production” below) ([1]; EAEC exposed to rifaximin 64 mg/L for 4 hours) was “caused IL-8 production” and the “IL-8 production” value ([1]; EAEC exposed to rifaximin 8 or 32 mg/L for 4 or 8 hours) was “elicited production of IL-8”. For the same molecule, the “IL-8 production” value ([1]; all other time points and rifaximin concentrations) was “Interleukin-8 was either undetected following HCT-8 infection with EAEC strains, or EAEC strains were not viable”, the “IL-8 production” value ([1]; viable EAEC exposed to rifaximin 8, 32, or 64 mg/L for 18 hours or 8 mg/L for 24 hours) was “did not elicit IL-8 production” and the “EAEC O42 adherence to HEp-2 cells (microscopy)” value [2] was “greatly reduced”. The “Expression of all examined virulence factors (ST, LT, CS2/CS3, CS6) by viable ETEC isolates” value (“Expression … by viable ETEC isolates” below) ([3]; 4- and 8-hour exposure to rifaximin 8, 32, and 64 mg/L) was “expressed all examined virulence factors”, the “Expression … by viable ETEC isolates” value ([3]; 18-hour time point, rifaximin 8 mg/L) was “all virulence factors were expressed” and the “Expression … by viable ETEC isolates” value ([3]; 18-hour time point, rifaximin 32 mg/L) was “no factors were seen”. The “Expression … by viable ETEC isolates” value ([3]; 24-hour exposure to rifaximin 8 mg/L) was “did not express any virulence factors”, the “Expression of virulence factor CS2/CS3 in ETEC isolates” value (from here on “Expression of virulence factor CS2/CS3”) [3, 4] was “+” and the “Expression of virulence factor CS6 in ETEC isolates” value (“Expression of virulence factor CS6” for short) [3, 4] was “+”. For the same molecule, the “Expression of virulence factor LT in ETEC isolates” value (“Expression of virulence factor LT” for short) [3, 4] was “+”, the “Expression of virulence factor ST in ETEC isolates” value [3, 4] was “+” and the “Expression of virulence factor ST/LT in ETEC isolates” value (“Expression of virulence factor ST/LT” below) [3, 4] was “+”. For the same molecule, the “Expression of virulence factor CS2/CS3” value [3, 5] was “+”, the “Expression of virulence factor CS6” value [3, 5] was “+” and the “Expression of virulence factor LT” value [3, 5] was “+”. For the same molecule, the “Expression of virulence factor ST in ETEC isolates” value [3, 5] was “+”, the “Expression of virulence factor ST/LT” value [3, 5] was “+” and the “Expression of virulence factor CS2/CS3” value [3, 6] was “+”. For the same molecule, the “Expression of virulence factor CS6” value [3, 6] was “+”, the “Expression of virulence factor LT” value [3, 6] was “+” and the “Expression of virulence factor ST in ETEC isolates” value [3, 6] was “+”. For the same molecule, the “Expression of virulence factor ST/LT” value [3, 6] was “+”, the “Expression of virulence factor CS2/CS3” value [3, 7] was “−” and the “Expression of virulence factor CS6” value [3, 7] was “−”. For the same molecule, the “Expression of virulence factor LT” value [3, 7] was “−”, the “Expression of virulence factor ST in ETEC isolates” value [3, 7] was “−” and the “Expression of virulence factor ST/LT” value [3, 7] was “−”. For the same molecule, the “Expression of virulence factor CS2/CS3” value [3, 8] was “+”, the “Expression of virulence factor CS6” value [3, 8] was “+” and the “Expression of virulence factor LT” value [3, 8] was “+”. For the same molecule, the “Expression of virulence factor ST in ETEC isolates” value [3, 8] was “+”, the “Expression of virulence factor ST/LT” value [3, 8] was “+” and the “Expression of virulence factor CS2/CS3” value [3, 9] was “+”. The “Expression of virulence factor CS6” value [3, 9] was “+”, the “Expression of virulence factor LT” value [3, 9] was “+” and the “Expression of virulence factor ST in ETEC isolates” value [3, 9] was “+”. The “Expression of virulence factor ST/LT” value [3, 9] was “+”, the “Expression of virulence factor CS2/CS3” value [3, 10] was “−” and the “Expression of virulence factor CS6” value [3, 10] was “−”. For the same molecule, the “Expression of virulence factor LT” value [3, 10] was “−”, the “Expression of virulence factor ST in ETEC isolates” value [3, 10] was “−” and the “Expression of virulence factor ST/LT” value [3, 10] was “−”. The “Expression of virulence factor CS2/CS3” value [3, 11] was “+”, the “Expression of virulence factor CS6” value [3, 11] was “+” and the “Expression of virulence factor LT” value [3, 11] was “+”. For the same molecule, the “Expression of virulence factor ST in ETEC isolates” value [3, 11] was “+”, the “Expression of virulence factor ST/LT” value [3, 11] was “+” and the “Expression of virulence factor CS2/CS3” value [3, 12] was “+”. The “Expression of virulence factor CS6” value [3, 12] was “+”, the “Expression of virulence factor LT” value [3, 12] was “+” and the “Expression of virulence factor ST in ETEC isolates” value [3, 12] was “+”. For the same molecule, the “Expression of virulence factor ST/LT” value [3, 12] was “+”.
